Source: patent US12115170B2, “Compositions and methods of clostridiodides difficile treatment, decolonization, and prevention” (Wisconsin Alumni Research Foundation, priority 2021, dated 2024)
Values after ≈ are worked out from the molar mass of the structure shown. Where two headings read alike, the source gives them in different places.

How the values were obtained:
C. difficile VPI 10463 [1] = experiment: CDI murine model, severe model; format: in vivo, C57BL/6 mice
[2] = system: C. difficile spores (four strains tested); experiment: Time-kill curves, S-CFU, four strains tested; format: cell-based, Clostridioides difficile
[3] = system: C. difficile VPI 10463 (ATCC 43255); experiment: MIC by broth microdilution, VPI 10463; format: cell-based; settings: Clostridioides difficile
Procedure: (§1) Susceptibility testing: The minimum inhibitory concentration (MIC), defined as the lowest concentration of an antimicrobial that will inhibit the visible growth of a microorganism, was determined for all isolates. […] Microwell plates containing omadacycline and BHI were used on the same day as their creation, and all media were reduced for 24 h prior. Media used to inoculate plates were created by suspending 24-h colonies in BHI to a McFarland standard of 0.5, which was added to each well, sufficient to about 1×10^6 CFU/ml. A total volume of […] was used, and plates were read after 24 h of incubation in the anaerobic hood. The lowest concentration without growth was determined to be the MIC. In accordance with CLSI recommendations, C. difficile ATCC 700057 was used as a control for each plate.

[4] = system: C. difficile 630 (ATCC BAA-1382); experiment: MIC by broth microdilution, 630; format: cell-based; settings: Clostridioides difficile
Procedure: as §1

[5] = system: C. difficile ATCC 700057 (VPI 11186); experiment: MIC by broth microdilution, control strain ATCC 700057; format: cell-based, Clostridioides difficile
Procedure: as §1

[6] = system: C. difficile 4118 (ATCC 1870); experiment: MIC by broth microdilution, ATCC 1870; format: cell-based; settings: Clostridioides difficile
Procedure: as §1

[7] = system: C. difficile ATCC 1870 vegetative cells; experiment: Time-kill curves, T-CFU versus S-CFU, ATCC 1870; format: cell-based, Clostridioides difficile
[8] = cited from earlier work; for Fecal concentration: clinical dosing, oral
C. difficile VPI 10463 [9] = experiment: CDI murine model, non-severe model; format: in vivo, C57BL/6 mice
[10] = system: C. difficile ICCD 0715 (clinical strain); experiment: MIC by broth microdilution, ICCD 0715; format: cell-based; settings: Clostridioides difficile, 24 h
Procedure: as §1

[11] = system: C. difficile strains used in this study; experiment: MIC by broth microdilution, range over the strains used in this study; format: cell-based; settings: Clostridioides difficile, read-out: MICs
Procedure: as §1

[12] = system: C. difficile spores (all strains); experiment: Spore washing and germination, all strains; settings: 0.5 mg/ml docusate exposure
[13] = ATCC 700057 (VPI 11186), R038, reduced BHI, 24 h, highest of replicates
[14] = non-severe model, environmental contamination

## CN(C)c1cc(CNCC(C)(C)C)c(O)c2c1C[C@H]1C[C@H]3[C@H](N(C)C)C(O)=C(C(N)=O)C(=O)[C@@]3(O)C(O)=C1C2=O [Omadacycline, omadacycline]
C. difficile VPI 10463 [1]; mouse, in vivo
  Toxin amounts, day 1: similar
C. difficile VPI 10463 [1]; severe model, treatment started 30 hours after spore gavage, once daily until day 5, OMC 0.25 mg, VAN 1.5 mg oral gavage
  Day 15 survival: 60%
[2]; antibiotic in BHI without germinants, throughout the treatment period (96 h), four strains
  Effect on S-CFU: did not affect S-CFU
[3]; ATCC43255, VP1 10463 (ATCC 43255), R087, reduced BHI, 24 h, read-out: MIC
  MIC: 0.063 µg/mL (≈ 0.113 µM)
[4]; ATCCBAA1382, 630 (ATCC BAA-1382), R012, reduced BHI, 24 h, read-out: MIC
  MIC: 0.125 µg/mL (≈ 0.225 µM)
[5]; [13]
  MIC: 0.125 µg/mL (≈ 0.225 µM)
[5]; Clostridioides difficile, ATCC700057, ATCC 700057 (VPI 11186), R038, reduced BHI, 24 h, highest of replicates, read-out: MIC
  MIC: 0.125 µg/mL (≈ 0.225 µM)
[6]; ATCC1870, 4118 (ATCC 1870), R027, reduced BHI, 24 h, read-out: MIC
  MIC: 0.031 µg/mL (≈ 0.0557 µM)
[7]; ATCC 1870, 24 to 96 h, with or without germinants
  Killing of vegetative cells (T-CFU equaled S-CFU): effective at killing vegetative cells
[8]
  Fecal concentration: approximately 430 mg/liter
[8]; in vivo
  Fecal excretion: 81%
C. difficile VPI 10463 [9]; by day 10
  Mice succumbed to rCDI: 20%
C. difficile VPI 10463 [9]; mouse, in vivo
  Final survival, survivors/total mice: 6/10
  Mortality: 40%
C. difficile VPI 10463 [9]; non-severe model
  Mice positive for C. difficile spores (spore shedding), day 15: 60%
C. difficile VPI 10463 [9]; non-severe model, after clindamycin-induced relapse (days 10-12)
  Final survival: 60%
C. difficile VPI 10463 [9]; [14]
  Positive cage swab rate, day 10: 8.3%
  Positive cage swabs, day 13: no positive swabs
[10]; ICCD 0715 (clinical strain), R027, reduced BHI, read-out: MIC
  MIC: 0.031 µg/mL (≈ 0.0557 µM)
[11]; range for the strains used in this study
  MIC: 0.031 to 0.125 µg/mL (≈ 0.0557 to 0.225 µM)

## CN[C@H](CC(C)C)C(=O)N[C@H]1C(=O)N[C@@H](CC(N)=O)C(=O)N[C@H]2C(=O)N[C@H]3C(=O)N[C@H](C(=O)N[C@H](C(=O)O)c4cc(O)cc(O)c4-c4cc3ccc4O)[C@H](O)c3ccc(c(Cl)c3)Oc3cc2cc(c3O[C@@H]2O[C@H](CO)[C@@H](O)[C@H](O)[C@H]2O[C@H]2C[C@](C)(N)[C@H](O)[C@H](C)O2)Oc2ccc(cc2Cl)[C@H]1O [Vancomycin, vancomycin]
C. difficile VPI 10463 [1]; mouse, in vivo
  Median toxin A and B production, day 2: significantly higher
  Toxin amounts, day 1: similar
  Weight loss and clinical scoring: higher
C. difficile VPI 10463 [1]; mouse, in vivo, po
  Day 15 survival: 13.3%
[2]
  Effect on S-CFU: did not affect S-CFU
[3]; ATCC43255, 24 h
  MIC: 1 µg/mL (≈ 0.69 µM)
[4]; ATCCBAA1382, 24 h
  MIC: 4 µg/mL (≈ 2.76 µM)
[5]; [13]
  MIC: 2 µg/mL (≈ 1.38 µM)
[5]; Clostridioides difficile, ATCC700057, 24 h
  MIC: 2 µg/mL (≈ 1.38 µM)
[6]; ATCC1870, 24 h
  MIC: 2 µg/mL (≈ 1.38 µM)
[7]
  Killing of vegetative cells (T-CFU equaled S-CFU): effective at killing vegetative cells
[8]
  Fecal concentration: 2,000 mg/liter
C. difficile VPI 10463 [9]; mouse, in vivo
  Clinical scoring and weight loss (disease): more disease
  Final survival: 60%
  Final survival, survivors/total mice: 6/10
  Mice positive for C. difficile spores (spore shedding), day 15: 100%
  Mice succumbed to rCDI: 20%
  Mortality: 40%
  Positive cage swab rate, day 10: 8.3%
  Positive cage swabs, day 13: 25%
  Toxin amounts, day 10 and 13: higher
[10]
  MIC: 4 µg/mL (≈ 2.76 µM)
[11]
  MIC: 1 to 4 µg/mL (≈ 0.69 to 2.76 µM)

## CCCCC(CC)COC(=O)CC(C(=O)OCC(CC)CCCC)S(=O)(=O)O (centres unmarked) [docusate]
[12]
  Percent germination compared to all other treatments: highest percent germination
